“And” between values parts separate entries of the source, which are not always exact repeats. Equal values may be shown once.
Assays:
[1] = Permeability of the compound at pH 5 after 2 hrs by PAMPA; format: ADME; settings: read-out: Peff
[2] = Permeability of the compound at pH 6.2 after 2 hrs by PAMPA; format: ADME; settings: read-out: Peff
[3] = Permeability of the compound at pH 7.4 after 2 hrs by PAMPA; format: ADME; settings: read-out: Peff
Rattus norvegicus [4] = experiment: Antiinflammatory activity in rat carrageenan-induced paw edema model assessed as inhibition of paw swelling at 50 mg/kg, ip administered 30 mins prior to carrageenan challenge measured after 3 hrs; format: functional
[5] = Acute toxicity in CD-1 mouse assessed as viability at 150 mg/kg, ip measured up to 14 days; format: organism-based; settings: in vivo
[6] = Acute toxicity in CD-1 mouse assessed as viability at 300 mg/kg, ip measured up to 14 days; format: organism-based; settings: in vivo
[7] = Acute toxicity in CD-1 mouse assessed as viability at 100 mg/kg, ip measured up to 14 days; format: organism-based; settings: in vivo
Rattus norvegicus [8] = experiment: Antiinflammatory activity in rat carrageenan-induced paw edema model assessed as inhibition of paw swelling at 25 mg/kg, ip administered 30 mins prior to carrageenan challenge measured after 5 hrs; format: functional
Rattus norvegicus [9] = experiment: Analgesic activity in rat assessed as latent period prolongation at 25 mg/kg, ip measured after 1 hr by hot plate test; format: functional
[10] = Acute toxicity in CD-1 mouse assessed as viability at 50 mg/kg, ip measured up to 14 days; format: organism-based; settings: in vivo, read-out: Activity
[11] = target: T1, Prostaglandin G/H synthase 1 (Ovis aries) (UniProt P05979); experiment: Inhibition of ovine COX-1 assessed as reduction in PGG2 production using ADHP as substrate at 2 uM incubated for 5 mins followed by substrate addition measured after 2 mins by fluorescence assay
T1 sequence (whole entry): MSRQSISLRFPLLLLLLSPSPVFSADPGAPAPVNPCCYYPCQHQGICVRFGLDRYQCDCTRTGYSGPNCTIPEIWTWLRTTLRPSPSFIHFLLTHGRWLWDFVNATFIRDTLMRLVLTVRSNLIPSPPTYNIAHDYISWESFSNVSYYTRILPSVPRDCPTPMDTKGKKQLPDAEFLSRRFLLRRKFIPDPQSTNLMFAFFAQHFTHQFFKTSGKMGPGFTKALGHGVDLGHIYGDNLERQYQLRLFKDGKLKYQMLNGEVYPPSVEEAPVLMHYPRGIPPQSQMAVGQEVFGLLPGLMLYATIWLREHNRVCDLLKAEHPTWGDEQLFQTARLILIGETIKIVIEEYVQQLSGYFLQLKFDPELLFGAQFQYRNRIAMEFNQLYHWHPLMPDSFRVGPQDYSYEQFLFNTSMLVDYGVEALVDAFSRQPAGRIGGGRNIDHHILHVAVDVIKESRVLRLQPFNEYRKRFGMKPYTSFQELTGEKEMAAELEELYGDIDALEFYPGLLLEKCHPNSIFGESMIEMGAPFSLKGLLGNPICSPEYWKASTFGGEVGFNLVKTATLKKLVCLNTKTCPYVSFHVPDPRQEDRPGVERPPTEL

[12] = target: T1, Prostaglandin G/H synthase 1 (Ovis aries); experiment: Inhibition of ovine COX-1 assessed as reduction in PGG2 production using ADHP as substrate at 200 uM incubated for 5 mins followed by substrate addition measured after 2 mins by fluorescence assay
Rattus norvegicus [13] = experiment: Antiinflammatory activity in rat carrageenan-induced paw edema model assessed as inhibition of paw swelling at 50 mg/kg, ip administered 30 mins prior to carrageenan challenge measured after 5 hrs; format: functional
[14] = Drug level in prisma HT buffer treated with 2-acetoxy-3,4,5-trifluorobenzoic acid at pH 5 to 7.4 by UV absorbance assay; format: toxicity
Rattus norvegicus [15] = experiment: Antiinflammatory activity in rat carrageenan-induced paw edema model assessed as inhibition of paw swelling at 25 mg/kg, ip administered 30 mins prior to carrageenan challenge measured after 3 hrs; format: functional
[16] = Acute toxicity in CD-1 mouse assessed as viability at 75 mg/kg, ip measured up to 14 days; format: organism-based; settings: in vivo, read-out: Activity
[17] = Drug level in prisma HT buffer treated with 2-acetoxy-3,4,5,6-tetrafluorobenzoic acid at pH 5 to 7.4 by UV absorbance assay; format: toxicity

Structure (SMILES) | survival at 336 h ([5]; read-out: Activity) | survival at 336 h ([6]; read-out: Activity) | inhibition in vivo at 25 mg/kg (Rattus norvegicus [8]) | Activity (Rattus norvegicus [9]) | inhibition [11] | inhibition in vivo at 25 mg/kg (Rattus norvegicus [15]) | other results
O=C([O-])c1c(O)c(F)c(F)c(F)c1F.[Na+] | – | – | – | – | – | – | Papp at 2 h [1]: 22.1 ×10⁻⁶ cm/s; Papp at 2 h [2]: 1.8 ×10⁻⁶ cm/s; Papp at 2 h [3]: 0.1 ×10⁻⁶ cm/s
COC(=O)c1cc(F)c(F)c(F)c1O | 100% | 0% | – | – | – | – | inhibition in vivo at 50 mg/kg (Rattus norvegicus [4]): 40.3%; survival at 336 h ([7]; read-out: Activity): 100%
O=C(O)c1ccc(F)c(F)c1O | 66% | 33% | – | – | – | – | survival at 336 h ([7]; read-out: Activity): 66%
CC(=O)Oc1c(C(=O)O)ccc(F)c1F | – | 33% | 35.3% | 98.8% | – | – | –
CC(=O)Oc1c(C(=O)O)cc(F)c(F)c1F | 70% | 0% | – | 71.2% | 35% | – | survival at 336 h [10]: 100%; inhibition [12]: 18%
O=C(O)c1cc(F)c(F)c(F)c1O | – | 0% | – | 178.1% | – | – | inhibition in vivo at 50 mg/kg (Rattus norvegicus [4]): 46.7%; inhibition in vivo at 50 mg/kg (Rattus norvegicus [13]): 46.9%; Drug metabolism [14]: Metabolite_Notdetected
O=C([O-])c1cc(F)c(F)c(F)c1O.[Na+] | 66% | – | – | 66.8% | – | – | –
COc1c(C(=O)O)cc(F)c(F)c1F | 80% | 0% | – | 73.2% | < 10% | – | survival at 336 h [10]: 100%; inhibition in vivo at 50 mg/kg (Rattus norvegicus [4]): 40%; inhibition in vivo at 50 mg/kg (Rattus norvegicus [13]): 30%
COc1c(F)c(F)c(F)c(F)c1C(=O)O | – | – | 46.9% | 100.8% | 48% | 53.8% | inhibition [12]: 64%
O=C(O)Cc1ccccc1Nc1c(Cl)cccc1Cl [DICLOFENAC] | – | – | 54.4% | 56 - 102.3% | – | 64.4% | –
CC(=O)Oc1c(F)cc(F)c(F)c1C(=O)O | – | – | 32.7% | 86.5% | – | 37.3% | –
O=C(O)c1c(O)c(F)c(F)c(F)c1F [listing 1 of 2 here] | – | – | – | – | 34% and 59% | – | inhibition [12]: 39% and 31%
CC(=O)Oc1cc(F)c(F)cc1C(=O)O | 100% | – | – | – | – | – | –
CC(=O)Oc1c(F)c(F)c(F)c(F)c1C(=O)O | 80% | 0% | 56.8% | 83.2% | – | 42.9% | survival at 336 h [10]: 100%; inhibition in vivo at 50 mg/kg (Rattus norvegicus [4]): 65.6%; inhibition in vivo at 50 mg/kg (Rattus norvegicus [13]): 45.1%
O=C(O)c1c(O)c(F)c(F)c(F)c1F [listing 2 of 2 here] | – | 0% | 33.1% | 143.2% | – | – | Papp at 2 h [1]: 18.6 ×10⁻⁶ cm/s; Papp at 2 h [2]: 0.5 ×10⁻⁶ cm/s; Papp at 2 h [3]: 0.1 ×10⁻⁶ cm/s; inhibition in vivo at 50 mg/kg (Rattus norvegicus [4]): 64%; inhibition in vivo at 50 mg/kg (Rattus norvegicus [13]): 56.5%; survival at 336 h [16]: 66%; Drug metabolism [17]: Metabolite_Notdetected
O=C(O)c1c(O)c(F)cc(F)c1F | 66% | – | 41.7% | 60.3% | – | 47% | –
CC(=O)Oc1ccccc1C(=O)O [ASPIRIN] | – | – | 29.4 to 44.9% | 57.9% | 31% | 30.6 to 56.2% | Papp at 2 h [1]: 5.1 ×10⁻⁶ cm/s; Papp at 2 h [3]: 4.7 ×10⁻⁶ cm/s; inhibition [12]: 36%; survival at 336 h [5]: 100%; survival at 336 h [6]: 33%; survival at 336 h [7]: 100%
O=C(O)c1cc(F)c(F)cc1O | 66% | 33% | – | 60.6% | – | – | survival at 336 h ([7]; read-out: Activity): 100%
COC(=O)c1c(O)c(F)c(F)c(F)c1F | 90% | 0% | – | – | 47% | – | survival at 336 h [10]: 100%; inhibition [12]: 48%
